Experiment [1] concerns the target T1, ACE-2 (Homo sapiens, UniProt Q9BYF1).
T1 construct: nucleotides corresponding to the extracellular domain (M1-S740); FLAG; made in house; host or cells: Sf9 insect cells (recombinant baculovirus, transfer vector pA2); purified from conditioned media
Particulars: literature (Donoghue 2000; Tipnis 2000); cited from earlier work.

The target of experiment [2] is T1, ACE-2. The experiment in a line: Fluorometric ACE-2 inhibition assay with peptide M-2195 as substrate. The format is biochemical. Particulars: ACE-2 activity, M-2195 substrate, enzyme pre-incubated 30 minutes with inhibitor, 100 mM TRIS pH 7.4. The method, then: Assay mixture was prepared first by pre-incubating (30 minutes, room temperature) the enzyme with the inhibitor (0.45 μg ([…]) ACE-2, 0-0.5 μM inhibitor rage, up to 90 […] volume with 100 mM TRIS pH 7.4, 0.1% Tween-20, 0.4% DMSO) in each well, in triplicate, by dispensing volumes using a repeat pipetter (Rainin) into a 96-well clear-bottom back plate (Costar, 07-200-590). […] Substrate stock (10 μL of 10× concentration) was added to each well to be tested in blocks of three vertically down the plate. The reaction was monitored on a Spectrafluor Plus (Tecan) at an excitation wavelength of 340 nm and an emission wavelength of 400 nm (+/−35 nm) every 30 seconds for a time period of 10 minutes.
ACE-2 cleaves off the C-terminal lysine from the peptide with a concomitant increase in fluorescence signal.
The assays were performed in 96-well clear-bottom black plates (Costar, 07-200-590). In each well, 0.45 μg (5 pmoles) of ACE-2 is added to 90 μL of an assay solution containing 100 mM TRIS at pH 7.4, 0.1% Tween, and 0.4% DMSO. Substrate stock at 10 μL of 10× concentration is added to each well (for example, 10 μL of 1 mM stock for a final 100 μM concentration). The reaction was monitored on a Spectrafluor Plus (Tecan) at an excitation wavelength of 340 nm and an emission wavelength of 400 nm (+/−35 nm) every 30 seconds up to 10 minutes. All samples were measured in triplicate.

Experiment [3] relates to isolated aortic vascular rings. Put plainly: Developed isometric tension of isolated rat aortic vascular rings. The following applies: for potentiation of angiotensin II-mediated vasoconstriction: peptide combined with angiotensin II. The text has this:
The effects of graded doses of A1-9 (Fields et al., Peptide Research 4: 95-101 (1991)) or A1-10 (substrate control) alone or in combination (Tallarida, Drug Synergism and Dose-Effect Data Analysis, Chapman and Hall/CRC, New York (2000), Tallarida et al., Life Science 61: PL417-425 (1997)) with angiotensin II were examined on isolated aortic vascular rings developed tension in response to vasoactive substances. Aortas were removed from mature male Sprague-Dawley rats, cleared of connective tissue, and cut into 1 mm rings. Rings were mounted to an isometric force transducer and placed in Krebs-Henseleit solution bubbled with 95% 02/5% C02 at 37° C. Rings were exposed to a 2 g preload, relaxed and then exposed to various concentrations of angiotensin peptides alone or in combination. Following angiotensin peptide dosing, rings were fully constricted with KCl to determine the maximum degree of vasoconstriction.
The maximum tension developed by A1-9 was minimal and always less than that of angiotensin II.

In experiment [4] the test system is awake, free-ranging Sprague-Dawley rats. Put plainly: Arterial pressure in awake, free-ranging Sprague-Dawley rats, intravenous infusion. The format is in vivo, rat. The method, then: To investigate the effects of A1-9 on arterial pressure, A1-9 was administered to awake, free-ranging Sprague-Dawley rats via indwelling intravenous and arterial catheters. Intravenous infusion of A1-9 (1-3 μg/kg/min) in the awake rat produced a dose-dependent tonic increase in mean arterial pressure to a maximum of approximately 30 mmHg (FIG. 2). […] These responses seen with A1-9 were similar in magnitude to those induced by angiotensin II.
To examine any interactions induced by coadministration of A1-9 and angiotensin II, arterial pressure was monitored in the awake rat after they received either A1-9 (1 μg/kg/min) or saline coinfused with angiotensin 11 (1-100 ng/kg/min).

Another experiment relates to isolated rat aorta. The following applies: literature (Oparil 1971); cited from earlier work.
The next experiment concerns anesthetized rats. The following applies: literature (Oparil 1971); cited from earlier work.
The test system of the next experiment is anesthetized dogs. Particulars: literature (Oparil 1971); cited from earlier work.
Setting [5] is: intravenous infusion 1-3 μg/kg/min, awake rat.

“And” between values parts separate entries of the source, which are not always exact repeats. Equal values may be shown once. “Also recorded” adds a separate entry of the source. Positions of bridges follow the written chain, without caps; N, C: chain ends.

T1 sequence (Q9BYF1 18-740): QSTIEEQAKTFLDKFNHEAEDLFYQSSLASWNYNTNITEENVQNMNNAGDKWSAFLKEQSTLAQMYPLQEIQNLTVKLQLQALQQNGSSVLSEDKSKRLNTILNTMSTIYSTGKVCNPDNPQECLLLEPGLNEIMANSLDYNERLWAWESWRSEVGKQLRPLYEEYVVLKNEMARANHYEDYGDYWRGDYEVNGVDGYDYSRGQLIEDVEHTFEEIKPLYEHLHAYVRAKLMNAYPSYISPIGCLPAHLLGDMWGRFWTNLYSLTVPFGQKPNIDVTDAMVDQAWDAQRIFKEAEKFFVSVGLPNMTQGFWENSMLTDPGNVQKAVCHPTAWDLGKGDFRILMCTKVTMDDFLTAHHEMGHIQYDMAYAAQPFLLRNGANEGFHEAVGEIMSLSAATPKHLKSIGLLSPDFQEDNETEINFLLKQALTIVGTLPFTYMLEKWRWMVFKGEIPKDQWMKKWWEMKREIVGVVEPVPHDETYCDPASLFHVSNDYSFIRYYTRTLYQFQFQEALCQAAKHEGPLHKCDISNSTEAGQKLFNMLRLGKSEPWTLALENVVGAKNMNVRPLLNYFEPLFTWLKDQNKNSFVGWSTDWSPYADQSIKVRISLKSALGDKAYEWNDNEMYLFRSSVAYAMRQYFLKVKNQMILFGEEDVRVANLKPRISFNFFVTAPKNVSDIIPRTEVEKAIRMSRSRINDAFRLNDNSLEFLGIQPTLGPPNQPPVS

Take `C[C@H](CS)C(=O)N1CCC[C@H]1C(=O)O` [captopril]: the “block of ACE-2 conversion of angiotensin I to angiotensin 1-9” value on ACE-2 [1] is “not blocked”.

In the case of “Ac-GSNDYCTVFTGALFCLDFAPEGGG-NH2 (disulfide 6-15 (inferred)) [DX-507]”, in the experiment with ACE-2 [2], the Inhibition entry is “−”.

Turning to “Ac-AGWVLCFEWEDCDEKGTEGGG-NH2 (disulfide 6-12 (inferred)) [DX-527]”, the Inhibition result with ACE-2 [2] is “−”.

For the compound “Ac-GDDDDCGWIGFANFHLCLHGDPEGGG-NH2 (disulfide 6-17 (inferred)) [DX-510]”, the Inhibition entry with ACE-2 [2] is “−”.

With “angiotensin I (DRVYIHPFHL; Angiotensin-1; UniProt P01019 25-34, looked up) [substrate control; the ACE and ACE-2 substrate]”, the “potentiation of angiotensin II-mediated vasoconstriction” value in experiment [3] is “failed to potentiate”.

For “Ac-GSLEMCEALFCVEFAPGEGGG-NH2 (disulfide 6-11 (inferred)) [DX-502]”, the Inhibition entry in the experiment with ACE-2 [2] is “−”.

As for “des-Leu^10-angiotensin I (DRVYIHPFH; Angiotensin 1-9; UniProt P01019 25-33, looked up) [A1-9, nonapeptide formed by removal of the C-terminal leucine from angiotensin I]”, the “Al-9 % Max. Developed Force” value in experiment [3] (Emax, A1-9 alone, 1-30 nM, mature rat aortic rings, % of KCl maximum, one value per experiment 1-5, listed as Al-9) is 3.5% and 0% and 7.5% and 6.4% and 3.2%. Besides, in experiment [3], the “potentiation of angiotensin II-mediated vasoconstriction” value is “synergistic or supraadditive potentiation”. Besides, the “vasoconstrictor activity of the peptide alone” value in experiment [3] (rat aortic rings) is on record as “no effect on vascular tone; also recorded: virtually devoid of activity”. Besides, the “factor of increase of the relative potency of angiotensin II beyond simple additive potentiation” value in experiment [3] (shift of angiotensin II dose-effect curve by A1-9, FIG. 1) was 11.6 (95% confidence limits of 3.02-44.7). Also, the “effect on the pressor response to angiotensin II” value in experiment [4] (coinfused with angiotensin II 1-100 ng/kg/min, A1-9 at 1 μg/kg/min) is reported as “potentiated the pressor response elicted by angiotensin II in an additive fashion”. In addition, in experiment [4] (setting [5]), the heart rate entry is on record as “decreased in a dose-dependent manner”, the “maximum increase in mean arterial pressure” value was “approximately 30 mmHg” and the “pulse pressure (systolic - diastolic)” value is given as “elevated”. Also, the vasoconstrictor activity entry in the experiment with isolated rat aorta was “weak vasoconstrictor”. Also, in the experiment on anesthetized rats, the pressor activity entry is on record as “weak pressor activity”. Further, the pressor activity result in the experiment with anesthetized dogs is on record as “weak pressor activity”.

Consider “Ac-AGEGNCFLIGPWCFEFGTEGGG-NH2 (disulfide 6-13 (inferred)) [DX-504]”, for which the Inhibition result in the experiment with ACE-2 [2] is listed as “−”.

In the case of “Ac-AGVYFCFDWEQDCDEMGTEGGG-NH2 (disulfide 6-13 (inferred)) [DX-528]”, in the experiment with ACE-2 [2], the Inhibition result is listed as “−”.

As to “Ac-GSDQNCFAMYCFEFAPGEGGG-NH2 (disulfide 6-11 (inferred)) [DX-503]”, the Inhibition result with ACE-2 [2] is listed as “−”.

The values are drawn from US6900033B2, “Methods and compositions for modulating ACE-2 activity” (Human Genome Sciences, Inc., priority 2001, dated 2005).
